{"source": "patent US8936941B2", "about": "“Compositions useful for cancer detection and treatment, a cancer stem cell model, and methods of production and use thereof” (priority 2008, dated 2015)", "key": {"[1]": {"tested_on": "DCAMKL-1", "sequence (O15075 other isoform, or with tags, fused parts or gaps)": "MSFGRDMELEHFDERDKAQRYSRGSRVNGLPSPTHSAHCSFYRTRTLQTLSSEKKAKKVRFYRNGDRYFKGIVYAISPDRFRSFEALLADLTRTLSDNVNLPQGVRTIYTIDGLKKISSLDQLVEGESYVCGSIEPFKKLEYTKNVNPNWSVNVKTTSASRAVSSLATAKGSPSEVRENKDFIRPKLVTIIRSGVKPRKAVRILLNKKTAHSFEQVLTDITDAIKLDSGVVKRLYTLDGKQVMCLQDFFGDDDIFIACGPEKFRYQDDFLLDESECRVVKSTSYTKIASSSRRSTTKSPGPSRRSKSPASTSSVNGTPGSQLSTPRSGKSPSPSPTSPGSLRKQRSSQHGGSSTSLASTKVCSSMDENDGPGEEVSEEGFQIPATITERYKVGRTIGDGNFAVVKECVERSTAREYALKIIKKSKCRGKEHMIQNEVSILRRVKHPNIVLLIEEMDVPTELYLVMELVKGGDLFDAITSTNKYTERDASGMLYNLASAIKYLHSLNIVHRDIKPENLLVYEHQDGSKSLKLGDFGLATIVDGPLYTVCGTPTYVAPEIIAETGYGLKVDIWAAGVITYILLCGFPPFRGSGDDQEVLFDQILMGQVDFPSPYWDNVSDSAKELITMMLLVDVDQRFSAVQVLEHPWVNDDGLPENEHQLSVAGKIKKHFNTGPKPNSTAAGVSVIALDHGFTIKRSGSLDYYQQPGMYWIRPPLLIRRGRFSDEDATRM", "assay": "siRNA knockdown of DCAMKL-1 in HCT116 cells, real-time RT-PCR and Western blot", "type": "cell-based, human", "experimental": "(§1) Cell culture. HCT116, HCT116 p21^−/− and SW480 human colon adenocarcinoma cell lines were obtained from the American Type Culture Collection (ATCC) and grown in Dulbecco's modified eagle's medium (DMEM) supplemented with 10% fetal bovine serum and 100 U/mL penicillin-streptomycin in a humidified chamber at 37° C. with 5% CO2.\n(§2) Silencer RNA. DCAMKL-1 siRNA (si-DCAMKL-1) sequence targeting the coding region of DCAMKL-1 (Accession # NM_004734 (SEQ ID NO:1)) ([…] (SEQ ID NO:3)) and scrambled control siRNAs (si-Scr) not matching any of the human genes were obtained (Ambion Inc., Austin, Tex.) and transfected using Transfectol™ (Ambion Inc.).\n(§3) Real-time reverse transcription-PCR analyses. Total RNA isolated either from cells or from human colon cancer cell tumor xenograft samples was subjected to reverse transcription with Superscript™ II RNase H—Reverse Transcriptase and random hexanucleotide primers (Invitrogen, Carlsbad, Calif.). The cDNA was subsequently used to perform Real-time PCR by SYBR chemistry (SYBR® Green I; Molecular Probes) for specific transcripts using gene specific primers and Jumpstart Taq DNA polymerase (Sigma-Aldrich, St. Louis, Mo.). […] The changes in mRNA were expressed as fold change relative to control with ±SEM value.\n(§4) miRNA analysis. Total miRNA was isolated using mirVana™ miRNA isolation kit (Ambion Inc.). Total miRNA isolated either from cells or from human colon cancer cell tumor xenograft samples were subjected to reverse transcription with Superscript™ II RNase H—Reverse Transcriptase and random hexanucleotide primers (Invitrogen, Carlsbad, Calif.). The cDNA was subsequently used to perform Real-time PCR by SYBR chemistry (SYBR® Green I; Molecular Probes) for pri-let-7a transcript using specific primers and Jumpstart Taq DNA polymerase (Sigma-Aldrich, St. Louis, Mo.). […] The changes in pri-miRNA were expressed as fold change relative to control with ±SEM value. Primers used are: […]\n(§5) Western Blot analysis. HCT116 and SW480 cells were cultured in a 6 well plates to 40% confluency and were transfected with si-DCAMKL-1 or si-Scr for 72 h. Cells or the tumor xenograft samples were lysed and the concentration of protein was determined by BCA protein assay kit (Pierce Biotechnology Inc., Rockford, Ill.). Forty μg of the protein was size separated in a 7.5-15% SDS polyacrylamide gel and transferred onto a nitrocellulose membrane with a semidry transfer apparatus (Amersham-Pharmacia, Piscataway, N.J.). The membrane was blocked in 5% non-fat dry milk for 1 h and probed overnight with a rabbit anti-DCAMKL-1 antibody (Abcam Inc., Cambridge, Mass.) or with rabbit anti-c-Myc antibody (Santa Cruz). Subsequently, the membrane was incubated with anti-rabbit or anti-goat IgG horseradish peroxidase-conjugated antibodies (Amersham-Pharmacia) for 1 h at room temperature. The 82 kDa DCAMKL-1 and 49 kDa c-Myc proteins were detected using ECL™ Western Blotting detection reagents (Amersham-Pharmacia). Actin (43 kDa), used as loading control was identified using a goat polyclonal IgG (Santa Cruz Biotechnology Inc., Santa Cruz, Calif.)."}, "[2]": {"tested_on": "DCAMKL-1", "assay": "siRNA knockdown of DCAMKL-1 in SW480 cells, real-time RT-PCR and Western blot", "type": "cell-based, human", "experimental": "as §1, §2, §3, §4, §5"}, "[3]": {"tested_on": "let-7a miRNA", "assay": "pLet7a-Luc luciferase reporter gene assay in AsPC-1 cells", "type": "cell-based, human", "source_text": "Luciferase Reporter Gene Assay: pLet7a-Luc reporter vector contains a let-7a miRNA specific binding site at the 3′ UTR of the firefly (Photinus pyralis) luciferase gene, pMiR-144-Luc reporter vector containing miR-144 miRNA specific binding site at the 3′UTR of the firefly luciferase gene and KRAS-Luc reporter vector containing specific binding sites for let-7 family members at the 3′UTR of the firefly luciferase gene were obtained from Signosis, Inc. (Sunnyvale, Calif.). Human pancreatic cancer cell lines were transfected with the pLet7a-Luc, pMiR-144-Luc and KRAS-Luc reporter vectors separately with Renilla luciferase expressing plasmid pRL-TK (Promega) along with DCAMKL-1, or scrambled siRNA-using siPORT™ NeoFX™ transfection reagent (Ambion, Inc.). Luciferase activity was determined as per the manufacturer's instructions (Dual Luciferase Reporter Assay System; Promega) using a BioTek Synergy HT (Winooski, Vt.) as described herein above. The activity, normalized to Renilla luciferase activity, is presented as relative luciferase units relative to control with ±SEM values. Assays were performed in triplicate wells, and experiments were repeated 3 times."}, "[4]": {"tested_on": "HCV subgenomic replicon", "assay": "HCV replication in GS5 cells (Huh7.5 with HCV subgenomic replicon)", "type": "cell-based, hepatitis C virus", "conditions": "48 hours", "experimental": "FIG. 61 illustrates that DCAMKL-1 is required for the HCV replication. A. siRNA against DCAMKL-1 (Si-DCAMKL1, 50 nM and 100 nM) or scrambled siRNA (SCR, 100 nM) were transfected into GS5 cells. Total RNAs were extracted and subjected to real-time quantitative PCR. The levels of HCV and DCAMKL-1 RNAs were considered arbitrary as one unit in untransfected GS5 cells (Cont). Actin mRNA in each sample was used as internal control for PCR. B. Western blot analysis of siRNAs tranfected and untransfected samples as indicated.\nInduction of putative stem cell/pluripotency factors by HCV: Normal adult hepatocytes are fully differentiated cells and lack expression of pluripotency factors. However, these cells can be induced to proliferate rapidly after partial hepatectomy and can also be reprogrammed into stem-like cells by forced expression of a cocktail of transcription factors. Thus, the impact of HCV on expression pattern of stem/progenitor cell markers was investigated in GS5 cells, which are derived from hepatoma cell line (Huh7.5) and support constitutive replication of a subgenomic HCV replicon under G418 selection. The replicon expresses HCV nonstructural proteins NS3 through NS5B of the HCV-1a strain and green florescent protein (GFP)-NS5A chimera. Total lysates from parent Huh7.5 and GS5 cells were subjected to Western blot analysis (FIG. 59).\nPutative intestinal stem cell marker DCAMKL1 is required for the HCV replication: The eccentric, punctate staining of HCV replication complexes consisting of most of the nonstructural proteins and cellular factors has been a puzzling question. It is known that these replication complexes associate with microtubules in order to replicate the HCV RNA. The DCAMKL1 protein, which binds and polymerizes tubulin into microtubule filaments, is considered as a putative marker for quiescent stem cells in the intestine, and its expression is increased in cancer stem cells. During confocal microscopy, most DCAMKL1 localization was consistently observed in the area containing replication complexes (indicated by NS5A-GFP) and high concentration of microtubules (FIG. 60). The perinuclear co-localization of DCAMKL1 with the NS5A-GFP (indicated by yellow stain) was also observed."}, "[5]": {"conditions": "Western blot, 72 h transfection"}, "[6]": {"conditions": "real-time RT-PCR, compared to controls"}}}
{"substance": "si-DCAMKL-1: siRNA targeting the coding region of DCAMKL-1 (NM_004734), sequence GGGAGUGAGAACAAUCUAC (SEQ ID NO:3) (chemistry not given here; listed as Homo sapiens)", "values": [{"measurement": "c-Myc mRNA and protein", "setting": "[1]", "result": "Reduction"}, {"measurement": "reduction in Notch-1 mRNA", "setting": "[1]", "result": 40, "unit": "%"}, {"measurement": "Notch-1 and cleaved Notch-1 protein", "setting": "[1]; Western blot", "result": "dose dependent reduction"}, {"measurement": "DCAMKL-1 protein", "setting": "[1]; [5]", "result": "reduction"}, {"measurement": "reduction in DCAMKL-1 mRNA expression", "setting": "[1]; real-time RT-PCR", "result": "> 70", "unit": "%"}, {"measurement": "increase in pri-let-7a miRNA", "setting": "[1]; [6]", "result": 4, "unit": "fold"}, {"measurement": "c-Myc mRNA and protein", "setting": "[2]", "result": "Reduction"}, {"measurement": "reduction in Notch-1 mRNA", "setting": "[2]", "result": "> 50", "unit": "%"}, {"measurement": "Notch-1 and cleaved Notch-1 protein", "setting": "[2]; Western blot", "result": "dose dependent reduction"}, {"measurement": "DCAMKL-1 protein", "setting": "[2]; [5]", "result": "reduction"}, {"measurement": "reduction in DCAMKL-1 mRNA expression", "setting": "[2]; real-time RT-PCR", "result": "> 70", "unit": "%"}, {"measurement": "increase in pri-let-7a miRNA", "setting": "[2]; [6]", "result": 4, "unit": "fold"}, {"measurement": "increase in pri-miR-144 miRNA", "setting": "[2]; [6]", "result": 3, "unit": "fold"}, {"measurement": "luciferase activity (let-7a binding site in 3' UTR)", "setting": "[3]", "result": "dose-dependent reduction"}, {"measurement": "NS5B polymerase level", "setting": "[4]; Western blot", "result": "decreases"}, {"measurement": "HCV RNA level", "setting": "[4]; siRNA 50 nM and 100 nM", "result": "decreases"}, {"measurement": "expression of DCAMKL1", "setting": "[4]; siRNA 50 nM and 100 nM", "result": "effectively inhibited"}]}
